In PubChem BioAssay AID248 (DTP/NCI, 2004) one finds T/C data, which are given here for 17 compounds.

The experiment has as its system L1210 leukemia ip in BDF1 mice, survival T/C. The experiment in a line: NCI In Vivo Anticancer Drug Screen. Data for tumor model L1210 Leukemia (intraperitoneal) in B6D2F1 (BDF1) mice. Particulars: endpoint: mean survival time, higher = longer survival. The gist of the method: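 Mice bearing the transplanted tumor received compound or vehicle. Survival of the treated group was divided by that of the vehicle-treated control group to give the ratio.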

[1] abbreviates: dose: 100.0 mg/kg/injection, schedule: Q01DX009 (ip), vehicle: Klucel (hydroxypropylcellulose) (HPC).
Setting [2] is: dose: 100.0 mg/kg/injection, schedule: Q04DX003 (ip), vehicle: Klucel (hydroxypropylcellulose) (HPC).
Where [3] appears, read: dose: 200.0 mg/kg/injection, schedule: Q01DX009 (ip), vehicle: Klucel (hydroxypropylcellulose) (HPC).
Where [4] appears, read: dose: 200.0 mg/kg/injection, schedule: Q04DX003 (ip), vehicle: Klucel (hydroxypropylcellulose) (HPC).
Setting [5] is: dose: 400.0 mg/kg/injection, schedule: Q01DX009 (ip), vehicle: Klucel (hydroxypropylcellulose) (HPC).
The mark [6] stands for this setting: dose: 400.0 mg/kg/injection, schedule: Q04DX003 (ip), vehicle: Klucel (hydroxypropylcellulose) (HPC).
Setting [7] is: dose: 100.0 mg/kg/injection, schedule: Q01DX001 (ip), vehicle: saline.
[8] abbreviates: dose: 200.0 mg/kg/injection, schedule: Q01DX001 (ip), vehicle: saline.
Setting [9] is: dose: 400.0 mg/kg/injection, schedule: Q01DX001 (ip), vehicle: saline.
The mark [10] stands for this setting: dose: 100.0 mg/kg/injection, schedule: Q04DX003 (ip), vehicle: saline.
Where [11] appears, read: dose: 200.0 mg/kg/injection, schedule: Q04DX003 (ip), vehicle: saline.
Where [12] appears, read: dose: 100.0 mg/kg/injection, schedule: Q01DX009 (ip), vehicle: saline.
The mark [13] stands for this setting: dose: 50.0 mg/kg/injection, schedule: Q01DX009 (ip), vehicle: Klucel (hydroxypropylcellulose) (HPC).

“And” between values parts separate entries of the source, which are not always exact repeats. Equal entries are not always repeated. Toxic doses and inconclusive results are not listed.

As to `CCOC(=O)c1cc(=O)c2c(ccc3cc(OC)ccc32)[nH]1`, the T/C reads like this: (dose: 6.25 mg/kg/injection, schedule: Q04DX002 (ip), vehicle: carboxymethylcellulose (CMC)) 101 % of control and 89 % of control; (dose: 12.5 mg/kg/injection, schedule: Q01DX001 (ip), vehicle: carboxymethylcellulose (CMC)) 105 % of control; (dose: 12.5 mg/kg/injection, schedule: Q01DX009 (ip), vehicle: carboxymethylcellulose (CMC)) 94 % of control and 105 % of control; (dose: 12.5 mg/kg/injection, schedule: Q04DX003 (ip), vehicle: carboxymethylcellulose (CMC)) 100 % of control; (dose: 25.0 mg/kg/injection, schedule: Q01DX001 (ip), vehicle: carboxymethylcellulose (CMC)) 105 % of control; (dose: 25.0 mg/kg/injection, schedule: Q01DX009 (ip), vehicle: carboxymethylcellulose (CMC)) 97 % of control and 98 % of control. In addition, the T/C is, setting by setting: (dose: 25.0 mg/kg/injection, schedule: Q04DX003 (ip), vehicle: carboxymethylcellulose (CMC)) 93 % of control; (dose: 50.0 mg/kg/injection, schedule: Q01DX001 (ip), vehicle: carboxymethylcellulose (CMC)) 94 % of control; (dose: 50.0 mg/kg/injection, schedule: Q01DX009 (ip), vehicle: carboxymethylcellulose (CMC)) 94 % of control and 88 % of control; (dose: 50.0 mg/kg/injection, schedule: Q04DX003 (ip), vehicle: carboxymethylcellulose (CMC)) 100 % of control.

With `c1ccc2cc(-c3csc4ccccc34)ccc2c1`, the T/C reads like this: under setting [1], 104 % of control; under setting [2], 110 % of control; under setting [3], 94 % of control; under setting [4], 97 % of control; under setting [5], 103 % of control; under setting [6], 100 % of control.

Turning to `Cc1ccc(/C=C\C(=O)OCCCCOC(=O)/C=C/c2ccc(C)cc2)cc1`, the T/C was 97 % of control (dose: 50.0 mg/kg/injection, schedule: Q01DX001 (ip), vehicle: saline); 95 % of control under setting [7]; 91 % of control under setting [8]; 95 % of control under setting [9].

For the compound `CN(C)C(=C1C=CC=C1)N(C)C`, the T/C is 101 % of control (dose: 20.0 mg/kg/injection, schedule: Q04DX003 (ip), vehicle: saline); 96 % of control (dose: 40.0 mg/kg/injection, schedule: Q04DX003 (ip), vehicle: saline); 92 % of control (dose: 80.0 mg/kg/injection, schedule: Q04DX003 (ip), vehicle: saline).

Regarding `CC(=O)CC(=O)Nc1cc(C)ccc1C`, the T/C under setting [10] was 101 % of control; the T/C under setting [11] was 118 % of control; the T/C (dose: 400.0 mg/kg/injection, schedule: Q04DX003 (ip), vehicle: saline) is 95 % of control.

As to `COc1ccc(CC(N)C(=O)OC(C)C)cc1N(CCCl)CCCl` (stereo not drawn), the T/C was 108 % of control (dose: 1.5 mg/kg/injection, schedule: Q01DX001 (ip), vehicle: saline); 113 % of control (dose: 3.0 mg/kg/injection, schedule: Q01DX001 (ip), vehicle: saline); 97 % of control (dose: 6.0 mg/kg/injection, schedule: Q01DX001 (ip), vehicle: saline).

With `C=Cc1ccc(O)cc1`, the T/C reads like this: under setting [7], 103 % of control; under setting [8], 106 % of control; under setting [9], 98 % of control.

Turning to `COC(=O)CCC(C)C1CCC2C3C(OC(C)=O)CC4CC(O)CCC4(C)C3CC(O)C12C` (stereo not drawn), the T/C is 93 % of control and 107 % of control (dose: 100.0 mg/kg/injection, schedule: Q01DX009 (ip), vehicle: carboxymethylcellulose (CMC)); 93 % of control and 97 % of control (dose: 100.0 mg/kg/injection, schedule: Q04DX002 (ip), vehicle: carboxymethylcellulose (CMC)); 104 % of control (dose: 100.0 mg/kg/injection, schedule: Q04DX003 (ip), vehicle: carboxymethylcellulose (CMC)); 91 % of control and 92 % of control (dose: 200.0 mg/kg/injection, schedule: Q01DX009 (ip), vehicle: carboxymethylcellulose (CMC)); 97 % of control and 98 % of control (dose: 200.0 mg/kg/injection, schedule: Q04DX002 (ip), vehicle: carboxymethylcellulose (CMC)); 97 % of control (dose: 200.0 mg/kg/injection, schedule: Q04DX003 (ip), vehicle: carboxymethylcellulose (CMC)). In addition, the T/C runs as follows: (dose: 400.0 mg/kg/injection, schedule: Q01DX009 (ip), vehicle: carboxymethylcellulose (CMC)) 94 % of control and 88 % of control; (dose: 400.0 mg/kg/injection, schedule: Q04DX002 (ip), vehicle: carboxymethylcellulose (CMC)) 97 % of control; (dose: 400.0 mg/kg/injection, schedule: Q04DX003 (ip), vehicle: carboxymethylcellulose (CMC)) 95 % of control.

In the case of `CCNCCn1cccc1`, the T/C is 97 % of control (dose: 50.0 mg/kg/injection, schedule: Q01DX009 (ip), vehicle: saline); 100 % of control under setting [12]; 97 % of control under setting [10]; 97 % of control (dose: 200.0 mg/kg/injection, schedule: Q01DX009 (ip), vehicle: saline); 100 % of control under setting [11].

Consider `CC1(C)N=C(N)N=C(N)N1c1ccc(C(=O)Nc2cccc(S(=O)(=O)F)c2)cc1`, for which the T/C (dose: 0.8 mg/kg/injection, schedule: Q01DX009 (ip), vehicle: saline) was 97 % of control; the T/C (dose: 4.0 mg/kg/injection, schedule: Q01DX009 (ip), vehicle: saline) was 101 % of control; the T/C (dose: 20.0 mg/kg/injection, schedule: Q01DX009 (ip), vehicle: saline) is 97 % of control; the T/C under setting [12] was 100 % of control; the T/C (dose: 500.0 mg/kg/injection, schedule: Q01DX009 (ip), vehicle: saline) is 92 % of control.

On to `N#CSC/C=C/Cl`, for which the T/C under setting [13] is 94 % of control, the T/C under setting [1] was 107 % of control, the T/C under setting [2] is 92 % of control and the T/C under setting [4] is 90 % of control.

Regarding `Cc1nnc(N(C)C)nc1C`, the T/C (dose: 100.0 mg/kg/injection, schedule: Q01DX001 (ip), vehicle: saline with Tween-80) is 98 % of control; the T/C (dose: 200.0 mg/kg/injection, schedule: Q01DX001 (ip), vehicle: saline with Tween-80) is 97 % of control; the T/C (dose: 400.0 mg/kg/injection, schedule: Q01DX001 (ip), vehicle: saline with Tween-80) was 108 % of control.

For the compound `COc1cc(N(C)C)c(OC)cc1C=O`, the T/C is, setting by setting: under setting [1], 103 % of control; under setting [2], 97 % of control; under setting [3], 105 % of control; under setting [4], 95 % of control; under setting [6], 95 % of control.

For the compound `O=C(O)COc1cccc(Cl)c1F`, the T/C (dose: 100.0 mg/kg/injection, schedule: Q04DX002 (ip), vehicle: Klucel (hydroxypropylcellulose) (HPC)) was 100 % of control; the T/C (dose: 200.0 mg/kg/injection, schedule: Q04DX002 (ip), vehicle: Klucel (hydroxypropylcellulose) (HPC)) is 107 % of control; the T/C (dose: 400.0 mg/kg/injection, schedule: Q04DX002 (ip), vehicle: Klucel (hydroxypropylcellulose) (HPC)) is 118 % of control.

As for `C=CCN(C)N=Nc1ccccc1C(N)=O`, the T/C reads like this: (dose: 88.0 mg/kg/injection, schedule: Q01DX009 (ip), vehicle: saline with Tween-80) 158 % of control; (dose: 88.0 mg/kg/injection, schedule: Q04DX003 (ip), vehicle: saline with Tween-80) 122 % of control; (dose: 100.0 mg/kg/injection, schedule: Q04DX003 (ip), vehicle: saline with Tween-80) 116 % of control; (dose: 133.0 mg/kg/injection, schedule: Q01DX009 (ip), vehicle: saline with Tween-80) 150 % of control; (dose: 176.0 mg/kg/injection, schedule: Q01DX001 (ip), vehicle: saline with Tween-80) 109 % of control; (dose: 200.0 mg/kg/injection, schedule: Q01DX009 (ip), vehicle: saline with Tween-80) 95 % of control.

`O=C(Nc1cccc(C(F)(F)F)c1)Nc1ncccn1`: the T/C was 90 % of control under setting [13]; 94 % of control and 86 % of control under setting [1]; 89 % of control under setting [5].

With `C(=Nc1ccc(N=Cc2ccco2)cc1)c1ccco1`, the T/C is 93 % of control (dose: 87.5 mg/kg/injection, schedule: Q01DX009 (ip), vehicle: Klucel (hydroxypropylcellulose) (HPC)); 100 % of control (dose: 175.0 mg/kg/injection, schedule: Q01DX009 (ip), vehicle: Klucel (hydroxypropylcellulose) (HPC)); 97 % of control (dose: 350.0 mg/kg/injection, schedule: Q01DX009 (ip), vehicle: Klucel (hydroxypropylcellulose) (HPC)).
